Experimental data: publication PMC8151276, “An Integrated Approach toward NanoBRET Tracers for Analysis of GPCR Ligand Engagement” (Molecules, 2021)

How the values were obtained:
Assay type in all cases: binding
[1] = molecular target: T1, P2RY6 (Homo sapiens, UniProt Q15077); assay: NanoBRET screen HiBiT-P2RY6 in HEK293; settings: P2RY6
T1 construct: purchased Promega (in-house HiBiT-GPCR construct library, NanoBRET)
Procedure: (§1) Each tracer candidate was screened across the entire library of HiBiT-GPCR constructs using NanoBRET as the detection modality. As depicted in Figure 4A, the specificity of interactions was evaluated through decrease in BRET due to competitive displacement of a bound tracer by excess parental compound. Each tracer was analyzed for binding to each HiBiT-GPCR fusion in the absence and in the presence of competing parental compound. Briefly, HEK293 cells were transfected with HiBiT-GPCR constructs diluted into promoterless DNA to reduce expression and maximize translocation to the cell surface. Each tracer candidate was then screened at concentrations of 1 μM and 0.1 μM across cells expressing these fusions. Cells were treated for 1.5 h with tracer either alone or in the presence of 20 μM competing parental compound (i.e., control). BRET was measured upon addition of purified LgBiT and subsequent complementation with HiBiT genetically fused to a GPCR. The specificity of interactions was assessed through a decrease in BRET signal due to competitive displacement of the bound tracer. To further gauge the robustness of these interactions, the fold response over the control (i.e., BRETtracer/BRETcontrol) was calculated. We chose a 1.5-fold response, which translates to ≥7-fold signal over noise as the minimal threshold required to score an interaction as positive. […]. Below we highlight the screening results obtained for our exemplary fluorescent tracers based on Clozapine, Amitriptyline and AZD1283.
(§2) HiBiT-GPCR DNA constructs were diluted in 10 mM Tris pH 8 to a final concentration of 0.01 μg/μL, arrayed in 96-well plates and stored at −20 °C. For transfection, HEK293 cells were suspended in Opti-MEM (without phenol red) supplemented with 2% fetal bovine serum (Seradigm) and 100 units/mL penicillin–streptomycin (Gibco) at a final concentration of 220,000 cells/mL and dispensed into white 96-well plates at 90 μL/well. Subsequent transfections and screens were carried using an Agilent Bravo Automated Liquid Handling Platform. First, the 96-well HiBiT DNA arrays were diluted 25-fold in Opti-MEM (without serum or phenol red) to a final concentration of 0.0004 μg/μL and 20 μL of the diluted DNAs were transferred into new 96-well plates. Next, promoterless carrier DNA (1 μg/μL) was diluted 25-fold (0.04 μg/μL) and then dispensed into the diluted arrays at 20 μL/well. Following brief mixing, Viafect transfection reagent (Promega) diluted 16-fold into Opti-MEM was dispensed into the plates at 40 μL/well. After mixing by pipetting, plates were incubated for 10 min on the pipetting station deck. The DNA-transfection reagent complexes were then added to plates containing cells. To facilitate the screen, 10 μL of DNA-transfection reagent complexes were added in duplicates to the top 4 and bottom 4 rows, resulting in two identical 48-well arrays per plate. Plates with transfected cells were incubated for 18–20 h at 37 °C/5% CO2. A screen of each tracer across the entire library using two different concentrations requires duplicate plates of transfected cells. Depending on the number of tracers being screened, transfections can be scaled up using the same ratios. The next day, for each tracer, four 20× screening solutions in tracer dilution buffer (Promega) were prepared: two duplicates at final concentration of 20 μM and two duplicates at a final concentration of 2 μM. A competing unmodified compound was added to one of each duplicate at a final concentration of 400 μM. The four resulting solutions were diluted 4-fold in Opti-MEM without serum or phenol red to generate 5× solutions (5 µM and 0.5 µM tracer +/− 100 μM competing compound). To screen the library, a BioTek MultiFlo FX liquid dispenser was used to dispense 22.5 µL of tracer solution to the top 4 rows and 22.5 µL tracer + competing compound solution to the 4 bottom rows. Plates were briefly mixed on an orbital shaker and incubated for 1.5 h at room temperature. […]

[2] = molecular target: T2, GNRHR (Homo sapiens, UniProt P30968); assay: NanoBRET screen HiBiT-GNRHR in HEK293; settings: GNRHR
T2 construct: purchased Promega (in-house HiBiT-GPCR construct library, NanoBRET)
T2 sequence (P30968 1-328): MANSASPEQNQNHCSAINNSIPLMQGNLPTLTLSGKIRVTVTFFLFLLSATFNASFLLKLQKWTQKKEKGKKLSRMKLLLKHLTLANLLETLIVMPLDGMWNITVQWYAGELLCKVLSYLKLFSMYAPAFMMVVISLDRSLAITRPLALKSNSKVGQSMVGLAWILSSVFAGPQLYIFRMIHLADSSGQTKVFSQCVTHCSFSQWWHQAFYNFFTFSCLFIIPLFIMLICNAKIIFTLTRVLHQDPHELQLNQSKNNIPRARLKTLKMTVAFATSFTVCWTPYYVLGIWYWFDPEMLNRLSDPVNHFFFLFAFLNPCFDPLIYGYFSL
Procedure: as §1, §2

[3] = molecular target: T3, NTSR1 (Homo sapiens, UniProt P30989); assay: NanoBRET screen HiBiT-NTSR1 in HEK293; settings: NTSR1
T3 construct: purchased Promega (in-house HiBiT-GPCR construct library, NanoBRET)
T3 sequence (P30989 whole entry): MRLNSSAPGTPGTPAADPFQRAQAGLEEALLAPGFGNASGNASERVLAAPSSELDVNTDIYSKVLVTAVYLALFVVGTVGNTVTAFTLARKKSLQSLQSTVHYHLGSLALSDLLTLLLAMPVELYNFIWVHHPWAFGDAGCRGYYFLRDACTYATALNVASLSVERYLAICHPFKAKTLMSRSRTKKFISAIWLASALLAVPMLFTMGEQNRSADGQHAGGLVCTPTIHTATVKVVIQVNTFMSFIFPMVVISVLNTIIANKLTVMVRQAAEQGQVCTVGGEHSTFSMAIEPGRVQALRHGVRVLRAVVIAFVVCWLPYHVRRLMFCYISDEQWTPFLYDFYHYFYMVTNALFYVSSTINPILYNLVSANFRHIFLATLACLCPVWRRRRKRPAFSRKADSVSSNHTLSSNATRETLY
Procedure: as §1, §2

[4] = molecular target: T4, GALR3 (Homo sapiens, UniProt O60755); assay: NanoBRET screen HiBiT-GALR3 in HEK293; settings: GALR3
T4 construct: purchased Promega (in-house HiBiT-GPCR construct library, NanoBRET)
T4 sequence (O60755 1-368): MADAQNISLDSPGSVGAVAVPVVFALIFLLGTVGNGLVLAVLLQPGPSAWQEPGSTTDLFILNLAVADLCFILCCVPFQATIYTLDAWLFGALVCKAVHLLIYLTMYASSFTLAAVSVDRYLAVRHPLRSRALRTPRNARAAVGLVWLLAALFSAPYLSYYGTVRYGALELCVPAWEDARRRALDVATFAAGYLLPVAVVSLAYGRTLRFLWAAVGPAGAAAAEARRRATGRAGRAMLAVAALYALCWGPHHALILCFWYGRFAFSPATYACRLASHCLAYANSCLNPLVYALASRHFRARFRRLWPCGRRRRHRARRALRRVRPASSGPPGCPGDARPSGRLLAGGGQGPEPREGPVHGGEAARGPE
Procedure: as §1, §2

[5] = molecular target: T5, BDKRB1 (Homo sapiens, UniProt P46663); assay: NanoBRET screen HiBiT-BDKRB1 in HEK293; settings: BDKRB1
T5 construct: purchased Promega (in-house HiBiT-GPCR construct library, NanoBRET)
T5 sequence (P46663 1-353): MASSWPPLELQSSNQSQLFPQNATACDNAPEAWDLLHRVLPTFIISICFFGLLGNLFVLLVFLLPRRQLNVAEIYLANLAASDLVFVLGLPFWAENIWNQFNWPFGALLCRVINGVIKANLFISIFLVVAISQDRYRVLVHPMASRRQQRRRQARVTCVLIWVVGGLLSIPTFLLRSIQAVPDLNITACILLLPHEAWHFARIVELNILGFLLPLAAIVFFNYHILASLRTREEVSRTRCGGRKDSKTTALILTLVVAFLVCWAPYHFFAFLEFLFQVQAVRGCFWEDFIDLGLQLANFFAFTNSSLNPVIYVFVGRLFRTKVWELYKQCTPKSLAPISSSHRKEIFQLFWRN
Procedure: as §1, §2

T1 sequence (Q15077 whole entry): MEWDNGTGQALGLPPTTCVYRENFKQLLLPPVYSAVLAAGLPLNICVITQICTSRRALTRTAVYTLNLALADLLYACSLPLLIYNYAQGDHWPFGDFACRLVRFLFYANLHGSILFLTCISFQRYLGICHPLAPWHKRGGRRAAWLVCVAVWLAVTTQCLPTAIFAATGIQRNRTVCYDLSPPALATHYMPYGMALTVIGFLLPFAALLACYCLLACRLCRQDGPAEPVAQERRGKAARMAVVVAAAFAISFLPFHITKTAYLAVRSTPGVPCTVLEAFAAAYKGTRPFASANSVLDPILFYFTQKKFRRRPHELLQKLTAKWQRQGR

Row | Compound | NanoBRET Fold Response ([1]; tracer 0.1μM) | NanoBRET Fold Response ([1]; tracer 1μM) | NanoBRET Fold Response ([2]; tracer 0.1μM) | NanoBRET Fold Response ([2]; tracer 1μM) | NanoBRET Fold Response ([3]; tracer 0.1μM) | NanoBRET Fold Response ([3]; tracer 1μM) | NanoBRET Fold Response ([4]; tracer 0.1μM) | NanoBRET Fold Response ([4]; tracer 1μM) | NanoBRET Fold Response ([5]; tracer 0.1μM) | NanoBRET Fold Response ([5]; tracer 1μM) | NanoBRET Fold Response ([1]; 0.1μM) | NanoBRET Fold Response ([1]; 1μM) | NanoBRET Fold Response ([2]; 0.1μM) | NanoBRET Fold Response ([2]; 1μM) | NanoBRET Fold Response ([3]; 0.1μM) | NanoBRET Fold Response ([3]; 1μM) | NanoBRET Fold Response ([4]; 0.1μM) | NanoBRET Fold Response ([4]; 1μM) | NanoBRET Fold Response ([5]; 0.1μM) | NanoBRET Fold Response ([5]; 1μM)
1 | O=C(CCOCCOCCOCCOCCNC(=O)CCc1ccc2n1[B-](F)(F)[N+]1=C(c3ccc[nH]3)C=CC1=C2)NCCCN1CCN(C2=Nc3ccccc3Oc3ccc(Cl)cc32)CC1 [Loxapine-a-2-NB590] | 1.26 | 0.94 | 1.03 | 0.89 | 0.99 | 1.08 | 0.95 | 1.10 | 1.05 | 1.27 | – | – | – | – | – | – | – | – | – | –
2 | COc1ccccc1N1CCN(CCCCN2C(=O)c3ccc(CNC(=O)CCOCCOCCOCCOCCNC(=O)CCc4ccc5n4[B-](F)(F)[N+]4=C(c6ccc[nH]6)C=CC4=C5)cc3C2=O)CC1 [NAN-190-2-NB590] | 0.96 | 1.17 | 0.98 | 0.95 | 0.97 | – | 0.97 | 1.10 | 1.05 | 1.06 | – | – | – | – | – | – | – | – | – | –
3 | COc1ccccc1N1CCN(CCCCN2C(=O)c3ccc(CNC(=O)CCOCCNC(=O)c4ccc(CNC(=O)CCc5ccc6n5[B-](F)(F)[N+]5=C(c7ccc[nH]7)C=CC5=C6)cc4)cc3C2=O)CC1 [NAN-190-3-NB590] | 1.10 | 0.91 | 1.14 | 0.97 | 0.90 | 0.99 | 0.97 | 0.92 | 0.84 | 1.05 | – | – | – | – | – | – | – | – | – | –
4 | O=C(CCc1ccc2n1[B-](F)(F)[N+]1=C(c3ccc[nH]3)C=CC1=C2)NCc1ccc(C(=O)NCCOCCC(=O)N[C@@H]2CC[C@@]3(O)[C@H]4Cc5ccc(O)c6c5[C@@]3(CCN4CC3CC3)[C@H]2O6)cc1 [Naltrexone-3-NB590] | 0.84 | 0.81 | 0.90 | 0.99 | 1.07 | 0.93 | 1.03 | 1.01 | 1.18 | 1.03 | – | – | – | – | – | – | – | – | – | –
5 | Cc1cc2c(s1)Nc1ccccc1N=C2N1CCN(CCCNC(=O)CCOCCOCCOCCOCCNC(=O)CCc2ccc3n2[B-](F)(F)[N+]2=C(c4ccc[nH]4)C=CC2=C3)CC1 [Olanzapine-a-2-NB590] | 1.31 | 0.95 | 1.02 | 1.04 | 1.01 | 1.02 | 1.12 | 0.87 | 0.83 | 1.10 | – | – | – | – | – | – | – | – | – | –
6 | O=C(CCc1ccc2n1[B-](F)(F)[N+]1=C(c3ccc[nH]3)C=CC1=C2)NCc1ccc(C(=O)NCCOCCOCCNCC(O)COc2cccc3ccccc23)cc1 (centres unmarked) [Propranolol-3-NB590] | – | – | – | – | – | – | – | – | – | – | 1.07 | 0.96 | 1.12 | 1.03 | 1.06 | 1.01 | 1.05 | 0.91 | 0.95 | 0.97
7 | O=C(CCc1ccc2n1[B-](F)(F)[N+]1=C(c3ccc[nH]3)C=CC1=C2)NCCOCCOCCNC(=O)OCCOCCN1CCN(C2=Nc3ccccc3Sc3ccccc32)CC1 [Quetiapine-a-2-NB590] | 1.30 | 0.96 | 0.97 | 0.81 | 1.03 | 0.89 | 1.02 | 0.73 | 1.42 | 0.65 | – | – | – | – | – | – | – | – | – | –
8 | Cc1nc2n(c(=O)c1CCN1CCC(c3noc4cc(F)ccc34)CC1)CCCC2OC(=O)NCCOCCOCCOCCOCCNC(=O)CCc1ccc2n1[B-](F)(F)[N+]1=C(c3ccc[nH]3)C=CC1=C2 (centres unmarked) [Risperidone-2-NB590] | 1.00 | 1.03 | 0.88 | 0.97 | 1.00 | 0.98 | 0.90 | 0.94 | 1.28 | 0.77 | – | – | – | – | – | – | – | – | – | –
9 | CC(C)N(CC[C@H](c1ccccc1)c1cc(CCNC(=O)CCOCCOCCOCCOCCNC(=O)CCc2ccc3n2[B-](F)(F)[N+]2=C(c4ccc[nH]4)C=CC2=C3)ccc1O)C(C)C [Tolterodine-2-NB590] | 1.06 | 0.98 | 1.23 | 1.15 | 1.09 | 0.90 | 0.76 | 0.78 | 0.99 | 0.79 | – | – | – | – | – | – | – | – | – | –
